Measurements published in patent US20120114636A1, “LOW MOLECULAR WEIGHT CYCLIN E (LMW-E) AS A BIOMARKER FOR PERSONALIZATION OF CANCER THERAPIES” (The Board of Regents of the University of Texas System, priority 2009, published 2012).

What was measured:
MCF-7/Ac1 cells [1] = assay: Cell growth by cell counting, AD-stimulated cells; assay type: cell-based, human; conditions: Homo sapiens, MCF7, 72 h, with 25 nM AD, 3 days, read-out: inhibition of AD-induced growth
Experimental: Cell growth. The effects of the aromatase inhibitors on MCF7/Ac1 cells growth were examined by counting the cells at the indicated time. The cells were detached from their flask using trypsin and counted using a Coulter counter machine.
To examine the effects of the three different aromatase inhibitors on the proliferation of MCF-7/Ac1 cells, cells were cultured in estrogen deprived, charcoal stripped serum media (CSSM). The response of the cells to 25 nM of androstenedione (AD) alone or AD plus one of the 3 aromatase inhibitors letrozole (FIG. 22A), anastrozole (FIG. 22B), and exemestane (FIG. 22C) was measured after 3 days of treatment. Cells maintained in CSSM were used as controls.
FIGS. 22A-22C show the effect of aromatase inhibitor treatment on proliferative response and cell cycle distribution of MCF-7/Ac1 cells. Cells were cultured in IMEM with 10% charcoal-stripped serum medium (CSSM) without phenol red and with 600 μg/ml of G418 for 4 days before plating. Cells (100,000) were seeded in 100 mm dishes and, 24 hrs later, were exposed for 3 days to the specific treatment. […] CSSM, untreated cells cultured in charcoal-stripped serum medium without phenol red and with 600 μg/ml of G418.

MCF-7/Ac1 cells [2] = assay: Western blot of CDK2, phospho-CDK2, cyclin E, pRb; assay type: cell-based, human
Experimental: FIG. 28. Effect of increasing concentrations of letrozole in the presence of 25 nM AD on CDK2 kinase activity, activated CDK2 and Rb phosphorylation of MCF7/Ac1 human breast cancer cells. MCF-7/Ac1 cells were treated with the indicated concentrations of letrozole and AD for 3 days. CDK2 kinase assays were performed by immunoprecipitating equal amounts of cell lysate (250 μg) with monoclonal antibodies to CDK2 (D12, sc-6248) coupled to protein G beads, using histone H1 as substrate. […] The same cell lysates were subjected to western blot analysis (50 μg of protein) with the indicated antibodies.
Western blot analysis. Cell lysates were prepared and subjected to western blot analysis as described previously (Akli et al., 2004). Briefly, 50 μg of protein were subjected to electrophoresis on SDS-PAGE and transferred to Immobilon P overnight at 4° C. at […] constant voltage. The blots were blocked overnight at 4° C. in BLOTTO [5% nonfat dried milk in 20 mM Tris, 137 mM NaCl, and 0.05% Tween (pH 7.6)]. After being washed, the blots were incubated in primary antibodies for 3 h. Primary antibodies used were cyclin E (HE-12; Santa Cruz Biotechnology), p21 (0P64; Oncogene Research Products, Boston, Mass.), p27 (K25020; BD Biosciences-Transduction Laboratories, Lexington, Ky.), cyclin-dependent kinase 2 (CDK2; Transduction Laboratories), and actin (Chemicon International, Inc., Temecula, Calif.). Blots were then incubated with goat anti-mouse or anti-rabbit immunoglobulin-horseradish peroxidase conjugate at a dilution of 1:5000 in BLOTTO for 1 h and finally washed and developed by using the Renaissance chemiluminescence system as directed by the manufacturer (Perkin-Elmer Life Sciences, Inc., Boston, Mass.). Western blots were quantitated by densitometric analysis using IPLab Gel software (Scientific Image Processing, Vienna, Va.). Densitometric values of actin were used to standardize for equal protein loading. These values were introduced into the software Graph-Pad Prism version 4.0 (GraphPad Software, Inc., San Diego, Calif.) for statistical analysis.
MCF-7/Ac1 cells were treated with the indicated concentrations of letrozole and AD for 3 days. Cyclin E kinase assays were performed by immunoprecipitating equal amounts of cell lysate (250 μg) with monoclonal antibodies to cyclin E coupled to protein A beads, using histone H1 as substrate. […] The same cell lysates were subjected to western blot analysis (50 μg of protein) with the indicated antibodies. […] The same cell lysates were first immunoprecipitated with cyclin E followed by western blot for p21 and p27. […] The same cell lysates were first immunoprecipitated with CDK2 followed by western blot for p21 and p27. The levels of proteins were measured by densitometric scanning of the corresponding bands and normalized using actin values. The values indicated at the bottom were compared to the values obtained with untreated cells.

## N#Cc1ccc(C(c2ccc(C#N)cc2)n2cncn2)cc1 [letrozole]
MCF-7/Ac1 cells [1]; 0.1 μM
  inhibition at 0.1 µM: 37.2%
MCF-7/Ac1 cells [1]; 1 μM
  inhibition at 1 µM: 63.5%
MCF-7/Ac1 cells [2]; 0.5 μM letrozole with 25 nM AD
  cyclin E protein levels: slightly decreased
MCF-7/Ac1 cells [2]; increasing letrozole with 25 nM AD
  effect on AD-induced increase in CDK2 protein levels: blocked the increase in CDK2 protein levels in a dose dependent manner
MCF-7/Ac1 cells [2]; letrozole with 25 nM AD
  phosphorylation of endogenous CDK2 substrate pRb: decreased phosphorylation
